Results published in patent US7709498B2, “Quinoline derivatives as antibacterial agents” (Janssen Pharmaceutica N.V., priority 2005, dated 2010).
Converted amounts (≈) assume the structure as drawn.

Experiments:
Format in all cases: cell-based
[1] = tested on: Streptococcus pneumoniae (ATCC6305); test: Microtitre plate assay, IC90 determination, SPN 6305; conditions: 90% inhibitory concentration for bacterial growth, 37° C., resazurin fluorescence; for IC90 (μg/ml) SPN 6305: 24 hours; for IC90: Streptococcus pneumoniae, ATCC6305, 24 h, read-out: IC90 (μg/ml) SPN 6305
Protocol: (§1) The bacteria used in this study were grown overnight in flasks containing 100 ml Mueller-Hinton Broth (Becton Dickinson—cat. no. 275730) in sterile de-ionized water, with shaking, at 37° C. Stocks (0.5 ml/tube) were stored at −70° C. until use. Bacteria titrations were performed in microtiter plates to detect the TCID50, in which the TCID50 represents the dilution that gives rise to bacterial growth in 50% of inoculated cultures.
(§2) In general, an inoculum level of approximately 100 TCID50 was used for susceptibility testing.
(§3) Flat-bottom, sterile 96-well plastic microtiter plates were filled with 180 μl of sterile deionized water, supplemented with 0.25% BSA. Subsequently, stock solutions (7.8× final test concentration) of compounds were added in 45 μl volumes in column 2. Serial five-fold dilutions (45 μl in 180 μl) were made directly in the microtiter plates from column 2 to reach column 11. Untreated control samples with (column 1) and without (column 12) inoculum were included in each microtiter plate. Depending on the bacteria type, approximately 10 to 60 CFU per well of bacteria inoculum (100 TCID50), in a volume of 100 μl in 2.8× Mueller-Hinton broth medium, was added to the rows A to H, except column 12. The same volume of broth medium without inoculum was added to column 12 in row A to H. The cultures were incubated at 37° C. for 24 hours under a normal atmosphere (incubator with open air valve and continuous ventilation). At the end of incubation, one day after inoculation, the bacterial growth was quantitated fluorometrically. Therefore resazurin (0.6 mg/ml) was added in a volume of 20 μl to all wells 3 hours after inoculation, and the plates were re-incubated overnight. A change in colour from blue to pink indicated the growth of bacteria. The fluorescence was read in a computer-controlled fluorometer (Cytofluor Biosearch) at an excitation wavelength of 530 nm and an emission wavelength of 590 nm. The % growth inhibition achieved by the compounds was calculated according to standard methods. The IC90 (expressed in μg/ml) was defined as the 90% inhibitory concentration for bacterial growth.
(§4) BSU 3639 means Bacillus subtilis (ATCC43639); ECO 25922 means Escherichia coli (ATCC25922); EFA 14506 means Enterococcus faecalis (ATCC14506); EFA 29212 means Enterococcus faecalis (ATCC29212); LMO 49594 means Listeria monocytogenes (ATCC49594); PAE 27853 means Pseudomonas aeruginosa (ATCC27853); SMU 33402 means Streptococcus mutans (ATCC33402); SPN 6305 means Streptococcus pneumoniae (ATCC6305); SPY 8668 means Streptococcus pyogens (ATCC8668); STA 43300 means Staphylococcus aureus (ATCC43300); STA 25923 means Staphylococcus aureus (ATCC25923); STA 29213 means Staphylococcus aureus (ATCC29213); STA RMETH means methicilline resistant Staphylococcus aureus (MRSA) (a clinical isolate from the University of Antwerp). ATCC means American type tissue culture.

[2] = tested on: Bacillus subtilis (ATCC43639); test: Microtitre plate assay, IC90 determination, BSU 43639; conditions: 90% inhibitory concentration for bacterial growth, 37° C., resazurin fluorescence; for IC90: Bacillus subtilis, ATCC43639, 24 h, read-out: IC90 (μg/ml) BSU 43639
Protocol: as §1, §2, §3, §4

[3] = tested on: Enterococcus faecalis (ATCC29212); test: Microtitre plate assay, IC90 determination, EFA 29212; conditions: 90% inhibitory concentration for bacterial growth, 37° C., resazurin fluorescence; for IC90 (μg/ml) EFA 29212: 24 hours; for IC90: Enterococcus faecalis, ATCC29212, 24 h, read-out: IC90 (μg/ml) EFA 29212
Protocol: as §1, §2, §3, §4

[4] = tested on: Listeria monocytogenes (ATCC49594); test: Microtitre plate assay, IC90 determination, LMO 49594; conditions: 90% inhibitory concentration for bacterial growth, 37° C., resazurin fluorescence; for IC90 (μg/ml) LMO 49594: 24 hours
Protocol: as §1, §2, §3, §4

[5] = tested on: Enterococcus faecalis (ATCC14506); test: Microtitre plate assay, IC90 determination, EFA 14506; conditions: 90% inhibitory concentration for bacterial growth, 37° C., resazurin fluorescence; for IC90: Enterococcus faecalis, ATCC14506, 24 h, read-out: IC90 (μg/ml) EFA 14506
Protocol: as §1, §2, §3, §4

[6] = tested on: Staphylococcus aureus (ATCC43300); test: Microtitre plate assay, IC90 determination, STA 43300; conditions: 90% inhibitory concentration for bacterial growth, 37° C., 24 hours, resazurin fluorescence
Protocol: as §1, §2, §3, §4

[7] = tested on: Streptococcus pyogens (ATCC8668); test: Microtitre plate assay, IC90 determination, SPY 8668; conditions: 90% inhibitory concentration for bacterial growth, 37° C., resazurin fluorescence; for IC90 (μg/ml) SPY 8668: 24 hours
Protocol: as §1, §2, §3, §4

[8] = tested on: Pseudomonas aeruginosa (ATCC27853); test: Microtitre plate assay, IC90 determination, PAE 27853; conditions: 90% inhibitory concentration for bacterial growth, 37° C., resazurin fluorescence; for IC90 (μg/ml) PAE 27853: 24 hours
Protocol: as §1, §2, §3, §4

[9] = tested on: Streptococcus mutans (ATCC33402); test: Microtitre plate assay, IC90 determination, SMU 33402; conditions: 90% inhibitory concentration for bacterial growth, 37° C., resazurin fluorescence; for IC90 (μg/ml) SMU 33402: 24 hours
Protocol: as §1, §2, §3, §4

[10] = tested on: Staphylococcus aureus (ATCC25923); test: Microtitre plate assay, IC90 determination, STA 25923; conditions: 90% inhibitory concentration for bacterial growth, 37° C., resazurin fluorescence; for IC90: Staphylococcus aureus, ATCC25923, 24 h, read-out: IC90 (μg/ml) STA 25923
Protocol: as §1, §2, §3, §4

[11] = tested on: methicilline resistant Staphylococcus aureus (MRSA) (a clinical isolate from the University of Antwerp); test: Microtitre plate assay, IC90 determination, STA RMETH; conditions: 90% inhibitory concentration for bacterial growth, 37° C., resazurin fluorescence; for IC90: Staphylococcus aureus, MRSA, 24 h, read-out: IC90 (μg/ml) STA RMETH
Protocol: as §1, §2, §3, §4

[12] = tested on: Escherichia coli (ATCC25922); test: Microtitre plate assay, IC90 determination, ECO 25922; conditions: 90% inhibitory concentration for bacterial growth, 37° C., 24 hours, resazurin fluorescence, read-out: IC90 (μg/ml) ECO 25922
Protocol: as §1, §2
(§5) Flat-bottom, sterile 96-well plastic microtiter plates were filled with 180 μl of sterile deionized water, supplemented with 0.25% BSA. Subsequently, stock solutions (7.8× final test concentration) of compounds were added in 45 μl volumes in column 2. Serial five-fold dilutions (45 μl in 180 μl) were made directly in the microtiter plates from column 2 to reach column 11. Untreated control samples with (column 1) and without (column 12) inoculum were included in each microtiter plate. […] At the end of incubation, one day after inoculation, the bacterial growth was quantitated fluorometrically. […] The fluorescence was read in a computer-controlled fluorometer (Cytofluor Biosearch) at an excitation wavelength of 530 nm and an emission wavelength of 590 nm. The % growth inhibition achieved by the compounds was calculated according to standard methods. […]

[13] = tested on: Staphylococcus aureus (ATCC29213); test: Microtitre plate assay, IC90 determination, STA 29213; conditions: 90% inhibitory concentration for bacterial growth, 37° C., 24 hours, resazurin fluorescence, read-out: IC90 (μg/ml) STA 29213
Protocol: as §1, §2, §5

Structure (SMILES)	IC90 (μg/ml) SPN 6305 [1]	IC90 (μg/ml) LMO 49594 [4]	IC90 (μg/ml) STA 43300 [6]	IC90 (μg/ml) SPY 8668 [7]	IC90 (μg/ml) SMU 33402 [9]	IC90 [2]	IC90 [5]	further results
COc1nc2ccc(Br)cc2cc1C(c1ccccc1)C(O)(CCN(C)C)c1cccc2ccccc12 (stereo not shown) [Compound 15]	6.2 µg/mL (≈ 11.2 µM)	2.5 µg/mL (≈ 4.5 µM)	5.0 µg/mL (≈ 9 µM)	2.2 µg/mL (≈ 3.96 µM)	12.4 µg/mL (≈ 22.3 µM)	–	–	IC90 (μg/ml) BSU 43639 ([2]; 24 hours): 24.8 µg/mL (≈ 44.6 µM); IC90 (μg/ml) EFA 29212 [3]: 5.0 µg/mL (≈ 9 µM); IC90 (μg/ml) EFA 14506 ([5]; 24 hours): 24.8 µg/mL (≈ 44.6 µM); IC90 (μg/ml) PAE 27853 [8]: 12.4 µg/mL (≈ 22.3 µM)
CSc1nc2ccc(Br)cc2cc1C(c1ccccc1)C(O)(CCN(C)C)c1ccccc1 (stereo not shown) [Compound 32]	13.1 µg/mL (≈ 25.1 µM)	–	13.1 µg/mL (≈ 25.1 µM)	–	4.6 µg/mL (≈ 8.82 µM)	–	–	IC90 [10]: 9.3 µg/mL (≈ 17.8 µM); IC90 [11]: 13.1 µg/mL (≈ 25.1 µM); IC90 [3]: 4.6 µg/mL (≈ 8.82 µM); IC90 ([4]; Listeria monocytogenes, ATCC49594, 24 h, read-out: IC90 (μg/ml) LMO 49594): 4.6 µg/mL (≈ 8.82 µM); IC90 ([7]; Streptococcus, ATCC8668, 24 h, read-out: IC90 (μg/ml) SPY 8668): 4.6 µg/mL (≈ 8.82 µM); IC90 ([8]; Pseudomonas aeruginosa, ATCC27853, 24 h, read-out: IC90 (μg/ml) PAE 27853): 10.4 µg/mL (≈ 19.9 µM); IC90 [12]: 11.7 µg/mL (≈ 22.4 µM)
CSc1nc2ccc(Br)cc2cc1C(c1ccccc1)C(O)(CCN(C)C)c1ccccc1 (stereo not shown) [Compound 33]	5.9 µg/mL (≈ 11.3 µM)	2.3 µg/mL (≈ 4.41 µM)	5.9 µg/mL (≈ 11.3 µM)	2.6 µg/mL (≈ 4.99 µM)	10.4 µg/mL (≈ 19.9 µM)	10.4 µg/mL (≈ 19.9 µM)	11.7 µg/mL (≈ 22.4 µM)	IC90 (μg/ml) STA 25923 ([10]; 24 hours): 13.1 µg/mL (≈ 25.1 µM); IC90 (μg/ml) EFA 29212 [3]: 4.6 µg/mL (≈ 8.82 µM); IC90 (μg/ml) PAE 27853 [8]: 11.7 µg/mL (≈ 22.4 µM)
COc1nc2ccc(Br)cc2cc1C(c1ccccc1)C(O)(CCN(C)C)c1ccc2ccccc2c1 (stereo not shown) [Compound 45]	–	–	–	–	–	11.1 µg/mL (≈ 20 µM)	12.4 µg/mL (≈ 22.3 µM)	–

The next lines start with results.

IC90 (μg/ml) SPN 6305 [1]	IC90 (μg/ml) LMO 49594 [4]	IC90 (μg/ml) STA 43300 [6]	IC90 (μg/ml) SPY 8668 [7]	IC90 (μg/ml) SMU 33402 [9]	IC90 [2]	IC90 [5]	Structure (SMILES)	further results
–	10.5 µg/mL (≈ 19.9 µM)	–	10.5 µg/mL (≈ 19.9 µM)	–	–	–	COc1nc2ccc(Br)cc2cc1C(c1ccccc1)C(O)(CCn1ccnc1)c1ccccc1 (stereo not shown) [Compound 49]	IC90 [10]: 5.9 µg/mL (≈ 11.2 µM); IC90 [11]: 11.8 µg/mL (≈ 22.3 µM); IC90 [1]: 13.3 µg/mL (≈ 25.2 µM); IC90 ([9]; Streptococcus mutans, ATCC33402, 24 h, read-out: IC90 (μg/ml) SMU 33402): 10.5 µg/mL (≈ 19.9 µM)
–	23.6 µg/mL (≈ 44.7 µM)	–	26.5 µg/mL (≈ 50.1 µM)	21.0 µg/mL (≈ 39.7 µM)	10.5 µg/mL (≈ 19.9 µM)	–	COc1nc2ccc(Br)cc2cc1C(c1ccccc1)C(O)(CCn1ccnc1)c1ccccc1 (stereo not shown) [Compound 50]	IC90 (μg/ml) STA RMETH ([11]; 24 hours): 10.5 µg/mL (≈ 19.9 µM); IC90 [3]: 10.5 µg/mL (≈ 19.9 µM); IC90 [13]: 26.5 µg/mL (≈ 50.1 µM)
–	–	–	–	–	–	23.7 µg/mL (≈ 39.8 µM)	COc1nc2ccc(Br)cc2cc1C(c1ccccc1)C(O)(CCN1CCCCC1)c1cccc2ccccc12 (stereo not shown) [Compound 145]	IC90 [1]: 9.4 µg/mL (≈ 15.8 µM)
